Our source for the MIC, Activity and IC50 values is ChEMBL document CHEMBL3045925 (Med Chem Res, 2013).

Molecules are shown by their SMILES. ≈ marks a conversion by molar mass, not a printed value. Calls of active or inactive are those of the source.

The test system of test [1] is Staphylococcus epidermidis. Kind of test: Antibacterial activity against Staphylococcus epidermidis MTCC 3615 assessed as growth inhibition after 24 hr by two-fold serial dilution method. Conditions: MTCC 3615, 24 h. It is filed as functional.
Test [2] deals with COLO 320. Kind of test: Cytotoxicity against Homo sapiens (human) COLO320 cells at 200 ug/mL by MTT assay. The test is classed as functional.
Another test concerns Bacillus subtilis. Kind of test: Antibacterial activity against Bacillus subtilis MTCC 441 assessed as growth inhibition after 24 hr by two-fold serial dilution method. The test is classed as functional. Conditions: MTCC 441, 24 h.
The subject of test [3] is Radical scavenging activity. Description: Antioxidant activity assessed as DPPH free radical scavenging activity at 125 ug/mL after 30 min by spectrophotometric analysis. It is filed as functional.
The test system of a further test is Botrytis cinerea. Description: Antifungal activity against Botryotinia fuckeliana assessed as growth inhibition after 48 to 72 hr by two-fold serial dilution method. It is filed as functional.
The subject of test [4] is COLO 320. Description: Cytotoxicity against Homo sapiens (human) COLO320 cells at 100 ug/mL by MTT assay. The test is classed as functional. Background: Tetrazolium assays rely on reduction of a dye to a coloured formazan, in cell work by metabolically active cells.
The test system of test [5] is COLO 320. Kind of test: Cytotoxicity against Homo sapiens (human) COLO320 cells by MTT assay.
In test [6] the test system is Radical scavenging activity. Kind of test: Antioxidant activity assessed as DPPH free radical scavenging activity at 500 ug/mL after 30 min by spectrophotometric analysis. It is filed as functional.
Test [7] deals with COLO 320. Kind of test: Cytotoxicity against Homo sapiens (human) COLO320 cells at 10 ug/mL by MTT assay. The test is classed as functional.
For test [8], the system named is Trichophyton mentagrophytes. Kind of test: Antifungal activity against Trichophyton mentagrophytes 66/01 assessed as growth inhibition after 48 to 72 hr by two-fold serial dilution method. The test is classed as functional.
Test [9] relates to Radical scavenging activity. Kind of test: Antioxidant activity assessed as DPPH free radical scavenging activity at 250 ug/mL after 30 min by spectrophotometric analysis. The test is classed as functional. (In general: The DPPH test is a chemical assay of radical scavenging.)
Another test concerns Candida albicans. Kind of test: Antifungal activity against Candida albicans MTCC 227 assessed as growth inhibition after 48 to 72 hr by two-fold serial dilution method. It is filed as functional.
Test [10] concerns Klebsiella pneumoniae. Description: Antibacterial activity against Klebsiella pneumoniae ESBL 3894 clinical isolate assessed as growth inhibition after 24 hr by two-fold serial dilution method. It is filed as functional. Conditions: ESBL 3894, 24 h.
Test [11] deals with COLO 320. Description: Cytotoxicity against Homo sapiens (human) COLO320 cells at 50 ug/mL by MTT assay. It is filed as functional.
Test [12] deals with Salmonella enterica subsp. enterica serovar Paratyphi B. Description: Antibacterial activity against Salmonella enterica subsp. enterica serovar Paratyphi B assessed as growth inhibition after 24 hr by two-fold serial dilution method. It is filed as functional.
The subject of test [13] is Escherichia coli. Kind of test: Antibacterial activity against Escherichia coli ESBL 3904 clinical isolate assessed as growth inhibition after 24 hr by two-fold serial dilution method. As to conditions: ESBL 3904, 24 h. The test is classed as functional.
Test [14] concerns Radical scavenging activity. Description: Antioxidant activity assessed as DPPH free radical scavenging activity at 1000 ug/mL after 30 min by spectrophotometric analysis. The test is classed as functional.
Test [15] has as its system COLO 320. Description: Cytotoxicity against Homo sapiens (human) COLO320 cells at 25 ug/mL by MTT assay. It is filed as functional.
For test [16], the system named is Klebsiella pneumoniae. Description: Antibacterial activity against Klebsiella pneumoniae ESBL 75799 clinical isolate assessed as growth inhibition after 24 hr by two-fold serial dilution method. Conditions: ESBL 75799, 24 h. The test is classed as functional.
The subject of test [17] is Escherichia coli. Kind of test: Antibacterial activity against Escherichia coli ESBL 3984 clinical isolate assessed as growth inhibition after 24 hr by two-fold serial dilution method. It is filed as functional. As to conditions: ESBL 3984, 24 h.
Another test has as its system Micrococcus luteus. Description: Antibacterial activity against Micrococcus luteus assessed as growth inhibition after 24 hr by two-fold serial dilution method. It is filed as functional.
Another test concerns Aspergillus flavus. Description: Antifungal activity against Aspergillus flavus assessed as growth inhibition after 48 to 72 hr by two-fold serial dilution method. The test is classed as functional.
In the next test the test system is Shigella flexneri. Description: Antibacterial activity against Shigella flexneri MTCC 1457 assessed as growth inhibition after 24 hr by two-fold serial dilution method. As to conditions: MTCC 1457, 24 h. It is filed as functional.
For test [18], the system named is Staphylococcus aureus. Description: Antibacterial activity against methicillin-resistant Staphylococcus aureus clinical isolate assessed as growth inhibition after 24 hr by two-fold serial dilution method. It is filed as functional.
For the next test, the system named is Pseudomonas aeruginosa. Description: Antibacterial activity against Pseudomonas aeruginosa MTCC 741 assessed as growth inhibition after 24 hr by two-fold serial dilution method. As to conditions: MTCC 741, 24 h. The test is classed as functional.
The subject of test [19] is Klebsiella pneumoniae. Kind of test: Antibacterial activity against Klebsiella pneumoniae ESBL 3967 clinical isolate assessed as growth inhibition after 24 hr by two-fold serial dilution method. It is filed as functional. Conditions: ESBL 3967, 24 h.
For a further test, the system named is Salmonella typhimurium. Description: Antibacterial activity against Salmonella enterica subsp. enterica serovar Typhimurium MTCC 1251 assessed as growth inhibition after 24 hr by two-fold serial dilution method. Conditions: MTCC 1251, 24 h. The test is classed as functional.
Another test relates to Trichophyton rubrum. Kind of test: Antifungal activity against Trichophyton rubrum 57/01 assessed as growth inhibition after 48 to 72 hr by two-fold serial dilution method. The test is classed as functional.
Test [20] deals with Staphylococcus aureus. Description: Antibacterial activity against Staphylococcus aureus MTCC 96 assessed as growth inhibition after 24 hr by two-fold serial dilution method. It is filed as functional. As to conditions: MTCC 96, 24 h.
For another test, the system named is Scopulariopsis. Kind of test: Antifungal activity against Scopulariopsis sp. 101/01 assessed as growth inhibition after 48 to 72 hr by two-fold serial dilution method. It is filed as functional.
A short description of test [21]: Antioxidant activity assessed as reduction of Fe3+ to Fe2+ measured Fe2+ equivalent per gram dry mass after 4 min by spectrophotometric analysis. It is filed as functional.
The test system of test [22] is Klebsiella pneumoniae. Kind of test: Antibacterial activity against Klebsiella pneumoniae ESBL 3971 clinical isolate assessed as growth inhibition after 24 hr by two-fold serial dilution method. The test is classed as functional. As to conditions: ESBL 3971, 24 h.
In the next test the test system is Malassezia pachydermatis. Description: Antifungal activity against Malassezia pachydermatis assessed as growth inhibition after 48 to 72 hr by two-fold serial dilution method. It is filed as functional.
Test [23] is described as follows: Antioxidant activity assessed as reduction of Cu2+ to Cu+ after 30 min by spectrophotometric analysis. The test is classed as functional.
Test [24] in a line: Antioxidant activity assessed as reduction of Cu2+ to Cu+ at 125 to 1000 ug/mL after 30 min by spectrophotometric analysis. The test is classed as functional.

The term MIC denotes the smallest concentration in the dilution series that meets the test's criterion for growth inhibition. In general, IC50 refers to the concentration that gives 50% inhibition. Low readings indicate greater potency in that assay, high ones weaker potency in that assay. In the case of `COc1cc(/C=C/C(=O)NCCCCNC(=O)/C=C/c2ccc(O)c(OC)c2)ccc1O` [TERRESTRIBISAMIDE], the MIC was 200 µg/mL (≈ 454 µM) in test [1]; 200 µg/mL (≈ 454 µM) in the test on Bacillus subtilis; > 200 µg/mL with Botrytis cinerea; > 200 µg/mL in test [8]; 200 µg/mL (≈ 454 µM) in the test with Candida albicans; > 200 µg/mL in the test on Klebsiella pneumoniae [10]. The MIC in test [12] was > 200 µg/mL; in the test with Escherichia coli [13] it was 200 µg/mL (≈ 454 µM); with Klebsiella pneumoniae [16] it was > 200 µg/mL; with Escherichia coli [17], 200 µg/mL (≈ 454 µM); in the test on Micrococcus luteus, 200 µg/mL (≈ 454 µM); in the test with Aspergillus flavus it was > 200 µg/mL. For the same compound, the MIC with Shigella flexneri, in the test on Staphylococcus aureus [18], with Pseudomonas aeruginosa, with Klebsiella pneumoniae [19], in the test with Salmonella typhimurium and in the test on Trichophyton rubrum was > 200 µg/mL each time. Further, the MIC with Staphylococcus aureus [20] is > 200 µg/mL; in the test on Scopulariopsis it was > 200 µg/mL; in the test with Klebsiella pneumoniae [22], > 200 µg/mL; in the test on Malassezia pachydermatis it was 200 µg/mL (≈ 454 µM). For the same compound, the Activity in the test on COLO 320 [2] was found to be 83.218%; in test [3], 40.2%; in the test on COLO 320 [4], 64.827%; in [6], 84.6%; with COLO 320 [7] it was 9.655%; in test [9], 68.3%. Also, the Activity with COLO 320 [11] is 51.195%; in [14] it was 88.3%; in the test with COLO 320 [15], 21.609%; in test [21], 0.808 mMequiv; in test [23], “Dose-dependent effect”. The compound further had an IC50 with COLO 320 [5] of 50 µg/mL (≈ 114 µM).

In the case of `CC(=O)N1CCN(c2ccc(OCC3COC(Cn4ccnc4)(c4ccc(Cl)cc4Cl)O3)cc2)CC1` (configuration not stated) [KETOCONAZOLE], the MIC is < 12.5 µg/mL with Botrytis cinerea; < 12.5 µg/mL in test [8]; 25 µg/mL (≈ 47 µM) in the test with Candida albicans; < 12.5 µg/mL with Aspergillus flavus; < 12.5 µg/mL with Trichophyton rubrum; < 12.5 µg/mL in the test on Scopulariopsis. The MIC in the test with Malassezia pachydermatis came out at 12.5 µg/mL (≈ 23.5 µM).

`Cc1cc(C(C)(C)C)c(O)c(C(C)(C)C)c1`: the Activity in [3] was 60.9%; in [6], 80.9%; in test [9], 71.7%; in test [14], 90.1%; in [21], 2.21 mMequiv. In [24], the outcome was Active.

Regarding `CN[C@@H]1[C@H](O[C@H]2[C@H](O[C@H]3[C@H](O)[C@@H](O)[C@H](N=C(N)N)[C@@H](O)[C@@H]3N=C(N)N)O[C@@H](C)[C@]2(O)C=O)O[C@@H](CO)[C@H](O)[C@H]1O` [STREPTOMYCIN], the MIC in test [1] stood at 25 µg/mL (≈ 43 µM); in the test on Bacillus subtilis, 25 µg/mL (≈ 43 µM); with Klebsiella pneumoniae [10], 6.25 µg/mL (≈ 10.7 µM); with Escherichia coli [13] it was 25 µg/mL (≈ 43 µM); with Klebsiella pneumoniae [16] it was 25 µg/mL (≈ 43 µM); with Escherichia coli [17], 25 µg/mL (≈ 43 µM). In addition, the MIC in the test on Micrococcus luteus worked out at 6.25 µg/mL (≈ 10.7 µM); with Shigella flexneri, 6.25 µg/mL (≈ 10.7 µM); in the test on Staphylococcus aureus [18], 6.25 µg/mL (≈ 10.7 µM); in the test with Pseudomonas aeruginosa, 25 µg/mL (≈ 43 µM); with Klebsiella pneumoniae [19] it was 25 µg/mL (≈ 43 µM); with Salmonella typhimurium it was 30 µg/mL (≈ 51.6 µM). For the same compound, the MIC in the test on Staphylococcus aureus [20] and in the test with Klebsiella pneumoniae [22] was 6.25 µg/mL (≈ 10.7 µM) in each case. In test [12], the MIC entry is “inactive”.
